From PMC10385824, “Antiproliferative and Tubulin-Destabilising Effects of 3-(Prop-1-en-2-yl)azetidin-2-Ones and Related Compounds in MCF-7 and MDA-MB-231 Breast Cancer Cells” (Pharmaceuticals, 2023)

Test system: microtubule network in MCF-7 cells
Assay: Immunofluorescence confocal microscopy
Format: cell-based, human
Details: 16 h
Experimental: CA-4 and β-lactam 9q depolymerise the microtubule network in MCF-7 cells. […] After 16 h, the cells were fixed in 4% paraformaldehyde and stained with mouse monoclonal anti-α-tubulin−FITC antibody (clone DM1A) (green), Alexa Fluor 488 dye, and counterstained with DAPI (blue). The confocal images were obtained by Leica SP8 confocal microscopy with Leica application suite X software. Representative confocal micrograph images of three separate experiments are shown above [scale bar: […]].
The effects of β-lactam 9q on MCF-7 cytoskeleton were determined using confocal microscopy as previously described. MCF-7 cells were seeded at 1 × 10^5 cells/mL in glass slides with eight chambers (BD Biosciences, San Jose, CA, USA). […] Following treatment, cells were gently washed in PBS, fixed for 20 min with 4% paraformaldehyde in PBS and permeabilised in 0.5% Triton X-100. The cells were then washed with PBS-T (PBS containing 0.1% Tween), blocked in 5% bovine serum albumin diluted in PBS-T and incubated with mouse monoclonal anti-α-tubulin-FITC antibody (clone DM1A) (Sigma, Milwaulkee, WI, USA) (1:100) for 2 h at 20 °C. The cells were washed again with PBS-T and incubated with Alexa Fluor 488 dye (1:450) for 1 h at 20 °C. Following washes in PBST, the cells were mounted in Ultra Cruz Mounting Media (Santa Cruz Biotechnology, Santa Cruz, CA, USA), which contained 4,6-diamino-2-phenolindol dihydrochloride (DAPI). The immunofluorescence cell images were captured by Leica SP8 confocal microscopy and analysed with Leica application suite X software. Microscopy experiments were performed on three independent occasions, and the images for these experiments were obtained on the same day using identical conditions.

C=C(C)C1C(=O)N(c2cc(OC)c(OC)c(OC)c2)C1c1ccc(OC)c(O)c1 (stereo not shown) [9q, 4-(3-Hydroxy-4-methoxyphenyl)-1-(3,4,5-trimethoxyphenyl)-3-(prop-1-en-2-yl)azetidin-2-one]
effect on microtubule network: microtubule formation was inhibited and resulted in depolymerised microtubules
